{"source": "paper PMC6481345", "about": "“A novel anti-melanoma SRC-family kinase inhibitor” (Oncotarget, 2019)", "key": {"[1]": {"system": "LOX IMVI melanoma cell line", "assay": "NCI-60 human tumor cell line screen", "assay_type": "cell-based", "description": "(§1) We first tested the impact of SAB298 on NCI-60 human tumor cell lines that included eight melanomas (performed by the NCI Development Therapeutics Program).\n(§2) SFK-inhibitors were tested on a panel of NCI-60 cell lines (Supplementary Table 1) and 30 melanoma cell lines and NBMEL, i.e., normal human melanocytes isolated from a newborn foreskin (Table 1 and Supplementary Table 2). The Yale melanoma cohort designated YU originated from tumors excised to improve patient quality of life and used with participants’ informed consent according to Health Insurance Portability and Accountability Act (HIPAA) regulations with Human Investigative Committee protocol.\n(§3) Supplementary Table 1: Cellular activity of SAB298 in a Panel of NCI-60 cancer cell lines*\n(§4) measured protein; and TI is LC50/GI50.\n(§5) Supplementary Table 2: Description of Melanoma Cell lines. See Supplementary_Table_2"}, "[2]": {"system": "SK-MEL-28 melanoma cell line", "assay": "NCI-60 human tumor cell line screen", "assay_type": "cell-based", "description": "as §1, §2, §3, §4, §5"}, "[3]": {"system": "SK-MEL-2 melanoma cell line", "assay": "NCI-60 human tumor cell line screen", "assay_type": "cell-based", "description": "as §1, §2, §3, §4, §5"}, "[4]": {"system": "UACC-62 melanoma cell line", "assay": "NCI-60 human tumor cell line screen", "assay_type": "cell-based", "description": "as §1, §2, §3, §4, §5"}, "[5]": {"system": "MDA-MB-435 melanoma cell line", "assay": "NCI-60 human tumor cell line screen", "assay_type": "cell-based", "description": "as §1, §2, §3, §4, §5"}, "[6]": {"system": "MALME-3M melanoma cell line", "assay": "NCI-60 human tumor cell line screen", "assay_type": "cell-based", "description": "as §1, §2, §3, §4, §5"}, "[7]": {"system": "KM12 colon cancer cell line", "assay": "NCI-60 human tumor cell line screen", "assay_type": "cell-based", "description": "as §1, §2, §3, §4, §5"}, "[8]": {"system": "UACC-257 melanoma cell line", "assay": "NCI-60 human tumor cell line screen", "assay_type": "cell-based", "description": "as §1, §2, §3, §4, §5"}, "[9]": {"system": "MOLT-4 leukemia cell line", "assay": "NCI-60 human tumor cell line screen", "assay_type": "cell-based", "description": "as §1, §2, §3, §4, §5"}, "[10]": {"system": "HCT-116 colon cancer cell line", "assay": "NCI-60 human tumor cell line screen", "assay_type": "cell-based", "description": "as §1, §2, §3, §4, §5"}, "NCI-1460 NSCLC cell line": {"system": "NCI-1460 NSCLC cell line", "assay": "NCI-60 human tumor cell line screen", "assay_type": "cell-based", "description": "as §1, §2, §3, §4, §5"}, "SRC": {"target": "SRC (Homo sapiens, UniProt P12931)", "sequence (P12931 whole entry)": "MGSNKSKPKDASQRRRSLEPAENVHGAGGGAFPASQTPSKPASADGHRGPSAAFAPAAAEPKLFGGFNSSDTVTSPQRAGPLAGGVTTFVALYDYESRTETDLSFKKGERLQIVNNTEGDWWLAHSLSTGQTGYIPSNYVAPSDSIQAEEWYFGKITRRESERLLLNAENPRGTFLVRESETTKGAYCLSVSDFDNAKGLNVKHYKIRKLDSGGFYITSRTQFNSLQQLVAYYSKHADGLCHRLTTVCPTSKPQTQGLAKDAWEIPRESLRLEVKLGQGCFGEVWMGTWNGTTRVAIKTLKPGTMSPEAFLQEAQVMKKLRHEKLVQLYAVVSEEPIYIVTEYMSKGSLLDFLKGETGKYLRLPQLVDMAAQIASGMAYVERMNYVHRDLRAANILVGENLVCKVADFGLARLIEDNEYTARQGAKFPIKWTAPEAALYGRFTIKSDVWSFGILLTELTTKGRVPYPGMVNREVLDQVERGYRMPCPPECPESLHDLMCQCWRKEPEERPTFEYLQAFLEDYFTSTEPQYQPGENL", "assay": "KiNativ in situ kinase profiling in melanoma cell lysates", "assay_type": "binding", "design": "the endogenous kinome response to SAB298 (0.05 µM, 0.5 µM and 5 µM) in lysates from two melanoma cell lines; host or cells: YUSIV and YUSIK melanoma cell lysates", "description": "(§6) The effect of SAB298 on a panel of 36 recombinant kinases, was screed with the radioisotope filter binding assay employing 10 concentrations of the compound with 10 µM ATP (Reaction Biology Corporation, Malvern, PA). In addition, we tested the endogenous kinome response to SAB298 (0.05 µM, 0.5 µM and 5 µM) in lysates from two melanoma cell lines (YUSIV and YUSIK) employing the KiNativ® platform (ActivX Biosciences Inc., La Jolla, CA). KiNativ® is a robust, high performance mass spectrometry (LC-MS^2) assay that uses biotinylated probes to measure relevant changes in the affinity to the ATP-binding sites of 205 native kinases as a function of cellular context. We also validated SAB298 effect on the activity of SRC-family kinases by probing for phosphorylated Y416, the marker of activated SFKs, with anti-IEDNEpYTAR antibodies (also known as Y419, #2101, Cell Signaling Technology, Beverly, MA). In some cases the cells were incubated overnight with 20 µM proteasome inhibitor MG-132 (CAS 133407-82-6, Millipore Sigma, Burlington, MA) to rescue degradation."}, "LYN": {"target": "LYN (Homo sapiens, UniProt P07948)", "sequence (P07948 whole entry)": "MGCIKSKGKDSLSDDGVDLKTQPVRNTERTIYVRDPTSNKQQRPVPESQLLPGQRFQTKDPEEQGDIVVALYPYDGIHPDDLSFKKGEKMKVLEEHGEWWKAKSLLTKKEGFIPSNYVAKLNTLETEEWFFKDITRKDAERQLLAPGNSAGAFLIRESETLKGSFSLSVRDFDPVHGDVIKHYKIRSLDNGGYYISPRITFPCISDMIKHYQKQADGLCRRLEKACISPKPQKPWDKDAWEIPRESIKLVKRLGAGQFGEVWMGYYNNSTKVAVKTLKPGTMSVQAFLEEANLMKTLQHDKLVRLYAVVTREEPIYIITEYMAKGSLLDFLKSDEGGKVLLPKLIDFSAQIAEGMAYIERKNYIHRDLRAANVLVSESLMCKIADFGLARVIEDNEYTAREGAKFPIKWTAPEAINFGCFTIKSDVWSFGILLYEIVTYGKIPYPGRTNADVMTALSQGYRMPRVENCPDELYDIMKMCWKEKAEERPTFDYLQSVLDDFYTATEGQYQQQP", "assay": "KiNativ in situ kinase profiling in melanoma cell lysates", "assay_type": "binding", "design": "the endogenous kinome response to SAB298 (0.05 µM, 0.5 µM and 5 µM) in lysates from two melanoma cell lines; host or cells: YUSIV and YUSIK melanoma cell lysates", "settings": "3-point dose response", "description": "as §6"}, "pp38 T180/Y182": {"system": "pp38 T180/Y182", "assay": "Western blot, phospho-p38", "assay_type": "cell-based, human", "settings": "YUSIV melanoma cells", "description": "We used standard techniques to identify changes in intracellular signaling in response to various treatments. Briefly, melanoma cells were incubated with test compounds, using DMSO as a control, collected by scraping on ice, and lysed in RIPA buffer supplemented with protease and phosphatase inhibitors (MA #78428, and #78425, respectively, Thermo Fisher Scientific, Waltham, MA). Protein concentrations were measured with the BioRad kit (Bio-Rad Laboratories, Hercules, CA), SDS sample buffer was added, extracts were heated at 95°C, sonicated and centrifuged. Cell extracts (20 µg/lane) were fractionated in 3%–8% or 4–12 % tris-acetate gel (NP0006, NuPAGE Life Technologies). […]"}, "[11]": {"settings": "50% growth inhibition, five dose, average of 2 experiments"}, "[12]": {"settings": "cytotoxic concentration, 50% reduction in measured protein, read-out: LC50 (the source's name)"}}}
{"smiles": "Nc1ncnc2c1c(-c1ccc(Oc3ccccc3)cc1)nn2C[C@@H]1SSC[C@@H]1O", "note": "[SAB298, (3S, 4S)-3-((4-amino-3-(4-phenoxyphenyl)-1H-pyrazolo[3,4-d]pyrimidin-1-yl)methyl)-1,2-dithiolan-4-ol]", "values": [{"measurement": "GI50", "setting": "[1]; [11]", "result": 170, "unit": "nM"}, {"measurement": "CC50", "setting": "[1]; [12]", "result": 4560, "unit": "nM"}, {"measurement": "GI50", "setting": "[2]; [11]", "result": 88, "unit": "nM"}, {"measurement": "CC50", "setting": "[2]; [12]", "result": "> 100000", "unit": "nM"}, {"measurement": "GI50", "setting": "[3]; [11]", "result": 212, "unit": "nM"}, {"measurement": "CC50", "setting": "[3]; [12]", "result": 19400, "unit": "nM"}, {"measurement": "GI50", "setting": "[4]; [11]", "result": 182, "unit": "nM"}, {"measurement": "CC50", "setting": "[4]; [12]", "result": 872, "unit": "nM"}, {"measurement": "GI50", "setting": "[5]; [11]", "result": 103, "unit": "nM"}, {"measurement": "CC50", "setting": "[5]; [12]", "result": 618, "unit": "nM"}, {"measurement": "GI50", "setting": "[6]; [11]", "result": 550, "unit": "nM"}, {"measurement": "CC50", "setting": "[6]; [12]", "result": "> 100000", "unit": "nM"}, {"measurement": "GI50", "setting": "[7]; [11]", "result": 181, "unit": "nM"}, {"measurement": "CC50", "setting": "[7]; [12]", "result": 79300, "unit": "nM"}, {"measurement": "GI50", "setting": "[8]; [11]", "result": 374, "unit": "nM"}, {"measurement": "CC50", "setting": "[8]; [12]", "result": 93500, "unit": "nM"}, {"measurement": "GI50", "setting": "[9]; [11]", "result": 32, "unit": "nM"}, {"measurement": "CC50", "setting": "[9]; [12]", "result": "> 100000", "unit": "nM"}, {"measurement": "GI50", "setting": "[10]; [11]", "result": 134, "unit": "nM"}, {"measurement": "CC50", "setting": "[10]; [12]", "result": 6520, "unit": "nM"}, {"measurement": "GI50", "setting": "NCI-1460 NSCLC cell line; [11]", "result": 29, "unit": "nM"}, {"measurement": "CC50", "setting": "NCI-1460 NSCLC cell line; [12]", "result": 551, "unit": "nM"}, {"measurement": "higher binding affinity in KiNativ assay compared to radioisotope filtration binding assay", "setting": "SRC; SRC", "result": "~10", "unit": "fold"}, {"measurement": "IC50", "setting": "SRC; SRC in YUSIV lysate, 3-point dose response", "result": 31, "unit": "nM"}, {"measurement": "IC50", "setting": "LYN; LYN in YUSIK lysate", "result": 190, "unit": "nM"}, {"measurement": "IC50", "setting": "LYN; LYN in YUSIV lysate", "result": 60, "unit": "nM"}, {"measurement": "pp38 T180/Y182 level", "setting": "pp38 T180/Y182", "result": "induced p38 T180/Y182 phosphorylation"}]}
